According to patent publication US12186423B2, “Brightening booster technology and brightening ampule” (MARY KAY INC., priority 2020, dated 2025):
Values joined by “and” are separate entries in the source; they are usually repeats but may differ in a detail not shown here. Equal entries are not always repeated.

What was measured:
B16-F1 melanocytes [1] = experiment: B16 pigmentation assay (melanin production, absorbance at 405 nm); format: cell-based, mouse; settings: for OD 405 (single readings of triplicate): active ingredients diluted to 1% in DMEM, whole plate reading; for OD 405 (single readings of triplicate) / OD 405 AVG: kojic acid 1 mM, 5-6 days; for OD 405 AVG: average absorbance at 405 nm of triplicate, actives diluted to 1%; for % INHIBITION: vs untreated cells; for % INHIBITION / % Inhibition (change in pigmentation): negative value = less pigmentation; for Melanogenesis (OD 405, single readings of triplicate): alone and combined, kojic acid positive control; for Melanogenesis AVG (OD 405): average of triplicate; for % Inhibition (change in pigmentation): viability-corrected, vs untreated
Procedure: Melanogenesis is the process by which melanocytes produce melanin, a naturally produced pigment that imparts color to skin, hair, and eyes. Inhibiting melanogenesis is beneficial to prevent skin darkening and lighten dark spots associated with aging. […] The endpoint of these assays are a spectrophotometric measurement of melanin production and cellular viability. B16-F1 melanocytes were cultivated to subconfluence at 37° C. in 10% CO2 in T150 tissue culture flasks in standard DMEM growth medium supplemented with 10% fetal bovine serum (Mediatech) and 1% penicillin/streptomycin. Cells in one confluent T150 tissue culture flask were trypsinized and resuspended in DMEM, and 1% of the resuspended cells were seeded in 200 μl total volume DMEM in each well of a 96-well tissue culture plate. For phenol red-free media, 200 mM L-glutamine (20 ml/L) (Mediatech) was also added to the DMEM growth medium. […] Once cells reached about 20% confluence, cells were treated with any one of the active ingredients, combination of ingredients, or compositions having said combinations disclosed in the specification by replacing the DMEM growth media with 200 μl DMEM growth media containing diluted active ingredients. Cells were also treated with 1 mM kojic acid as a positive control. Cells were then incubated for 5-6 days at 37° C. in 10% CO2. Following incubation, melanin secretion was measured by absorbance of the whole plate at 405 nm (OD 405) (whole plate reading). […] Percent viability of the cell samples was calculated using the following formula: % Viability=(Mean OD 490 of Sample/Mean OD 490 of Control). […] Percent change in pigmentation of the cell samples was calculated using the following formula: % Change=% pigmentation of Sample−% pigmentation of Control.

B16-F1 melanocytes [2] = format: cell-based; settings: mouse
Procedure: The endpoint of these assays are a spectrophotometric measurement of melanin production and cellular viability. B16-F1 melanocytes were cultivated to subconfluence at 37° C. in 10% CO2 in T150 tissue culture flasks in standard DMEM growth medium supplemented with 10% fetal bovine serum (Mediatech) and 1% penicillin/streptomycin. Cells in one confluent T150 tissue culture flask were trypsinized and resuspended in DMEM, and 1% of the resuspended cells were seeded in 200 μl total volume DMEM in each well of a 96-well tissue culture plate. For phenol red-free media, 200 mM L-glutamine (20 ml/L) (Mediatech) was also added to the DMEM growth medium. Active ingredients were diluted to 1% in DMEM growth medium. Once cells reached about 20% confluence, cells were treated with any one of the active ingredients, combination of ingredients, or compositions having said combinations disclosed in the specification by replacing the DMEM growth media with 200 μl DMEM growth media containing diluted active ingredients. Cells were also treated with 1 mM kojic acid as a positive control. Cells were then incubated for 5-6 days at 37° C. in 10% CO2. Following incubation, melanin secretion was measured by absorbance of the whole plate at 405 nm (OD 405) (whole plate reading). […] Percent viability of the cell samples was calculated using the following formula: % Viability=(Mean OD 490 of Sample/Mean OD 490 of Control). […] Percent change in pigmentation of the cell samples was calculated using the following formula: % Change=% pigmentation of Sample−% pigmentation of Control.

[3] = second experiment, 2% niacinamide, 2% navy bean, 0.2% ferulic acid

| SMILES | effect on pigmentation / melanin secretion (in words) (B16-F1 melanocytes [1]; first experiment) | OD 405 (single readings of triplicate) (B16-F1 melanocytes [1]; first experiment) | OD 405 AVG (B16-F1 melanocytes [1]; first experiment) | % INHIBITION (B16-F1 melanocytes [1]; first experiment) | inhibited pigmentation / melanin secretion (B16-F1 melanocytes [1]; second experiment, 2% navy bean, 0.2% ferulic acid, 2% niacinamide) | Melanogenesis (OD 405, single readings of triplicate) (B16-F1 melanocytes [1]; [3]) | Melanogenesis AVG (OD 405) (B16-F1 melanocytes [1]; [3]) | % Inhibition (change in pigmentation) (B16-F1 melanocytes [1]; second experiment) | % Viability (B16-F1 melanocytes [2]) | Viability AVG (OD 490) (B16-F1 melanocytes [2]) | OD 405 (single readings of triplicate) (B16-F1 melanocytes [1]; first experiment, listed as CONTROL) |
| --- | --- | --- | --- | --- | --- | --- | --- | --- | --- | --- | --- |
| COc1cc(/C=C/C(=O)O)ccc1O [Ferulic Acid (FA), Ferulic acid] | inhibited pigmentation to some degree | 0.367 and 0.384 and 0.391 | 0.381 | −48.858% | 48.03% | 0.367 and 0.384 and 0.391 | 0.381 | −48.03% | 98.4% | 1.692 |  |
| O=c1cc(CO)occ1O [Kojic Acid, kojic acid] |  |  | 0.328 | −55.979% |  | 0.31 and 0.333 and 0.34 | 0.328 | −55.14% | 98.1% | 1.687 | 0.31 and 0.333 and 0.34 |
| NC(=O)c1cccnc1 [Niacinamide (B3), Niacinamide] |  | 0.775 and 0.766 and 0.78 | 0.774 | 3.941% |  | 0.775 and 0.766 and 0.78 | 0.774 | 3.58% | 100% | 1.725 |  |
